Test results taken from PubChem BioAssay (NCI).
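All cell lines were grown in 96-well plates and treated with compound for 48 hours. TGI: total growth inhibition.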

Legend:
Assay in all cases: NCI-60 cell line screen, 48 h
[1] = system: SF-295 CNS
[2] = system: K-562 leukemia
[3] = system: MCF7 breast
[4] = system: HOP-92 NSCLC
[5] = system: HCT-116 colon
[6] = system: HS 578T breast
[7] = system: A549 NSCLC
[8] = system: SK-MEL-5 melanoma
[9] = system: HCT-15 colon
[10] = system: SR leukemia
[11] = system: SF-539 CNS
[12] = system: DU-145 prostate
[13] = system: OVCAR-3 ovarian
[14] = system: NCI-H226 lung
[15] = system: SNB-75 CNS
[16] = system: IGROV1 ovarian
[17] = system: TK-10 renal
[18] = system: MALME-3M melanoma
[19] = system: HOP-62 NSCLC
[20] = system: SK-OV-3 ovarian
[21] = system: MDA-N
[22] = system: MOLT-4 leukemia
[23] = system: LOX IMVI melanoma
[24] = system: OVCAR-5 ovarian
[25] = system: UACC-62 melanoma
[26] = system: U251 CNS
[27] = system: SW-620 colon
[28] = system: OVCAR-8 ovarian
[29] = system: SN12C renal
[30] = system: A498 renal
[31] = system: NCI-H522 lung
[32] = system: CAKI-1 renal
[33] = system: UACC-257 melanoma
[34] = system: KM12 colon
[35] = system: BT-549 breast
[36] = system: HT29 colon
[37] = system: RXF 393 renal
[38] = system: OVCAR-4 ovarian
[39] = system: MDA-MB-435
[40] = system: SF-268 CNS
[41] = system: PC-3 prostate
[42] = system: SK-MEL-28 melanoma
[43] = system: COLO 205 colon
[44] = system: NCI/ADR-RES ovarian
[45] = system: 786-0 renal
[46] = system: MDA-MB-231 breast
[47] = system: EKVX NSCLC
[48] = system: RPMI-8226 leukemia
[49] = system: UO-31 renal
[50] = system: SK-MEL-2 melanoma
[51] = system: ACHN renal
[52] = system: HL-60(TB) leukemia
[53] = system: M14 melanoma
[54] = system: T-47D breast
[55] = system: SNB-19 CNS
[56] = system: NCI-H460 lung

Compound: CC1CCCC2(CC[N+](C)(CCC[N+](C)(C)C)CC2)C1 (stereo unspecified)
- TGI [1]: > 100 µM
- TGI [2]: > 100 µM
- TGI [3]: > 100 µM
- TGI [4]: > 100 µM
- TGI [5]: > 100 µM
- TGI [6]: > 100 µM
- TGI [7]: > 100 µM
- TGI [8]: > 100 µM
- TGI [9]: > 100 µM
- TGI [10]: > 100 µM
- TGI [11]: > 100 µM
- TGI [12]: > 100 µM
- TGI [13]: > 100 µM
- TGI [14]: > 100 µM
- TGI [15]: > 100 µM
- TGI [16]: > 100 µM
- TGI [17]: > 100 µM
- TGI [18]: > 100 µM
- TGI [19]: > 100 µM
- TGI [20]: > 100 µM
- TGI [21]: > 100 µM
- TGI [22]: > 100 µM
- TGI [23]: > 100 µM
- TGI [24]: > 100 µM
- TGI [25]: > 100 µM
- TGI [26]: > 100 µM
- TGI [27]: > 100 µM
- TGI [28]: > 100 µM
- TGI [29]: > 100 µM
- TGI [30]: > 100 µM
- TGI [31]: > 100 µM
- TGI [32]: > 100 µM
- TGI [33]: > 100 µM
- TGI [34]: > 100 µM
- TGI [35]: > 100 µM
- TGI [36]: > 100 µM
- TGI [37]: > 100 µM
- TGI [38]: > 100 µM
- TGI [39]: > 100 µM
- TGI [40]: > 100 µM
- TGI [41]: > 100 µM
- TGI [42]: > 100 µM
- TGI [43]: > 100 µM
- TGI [44]: > 100 µM
- TGI [45]: > 100 µM
- TGI [46]: > 100 µM
- TGI [47]: > 100 µM
- TGI [48]: > 100 µM
- TGI [49]: > 100 µM
- TGI [50]: > 100 µM
- TGI [51]: > 100 µM
- TGI [52]: 43.9 µM
- TGI [53]: > 100 µM
- TGI [54]: > 100 µM
- TGI [55]: > 100 µM
- TGI [56]: > 100 µM
